Source: patent publication US10093629B2, “Heterocyclic compounds and their use as retinoid-related orphan receptor (ROR) gamma-T inhibitors” (Takeda Pharmaceutical Company Limited, priority 2014, dated 2018)
Like-named read-outs stand apart in the source and are kept apart here.

Experiments:
RORγt [1] = target: T1, RORγt (Homo sapiens, UniProt P51449); assay: RORγt binding test using fluorescent-labeled synthetic ligand (TR-FRET); conditions: for inhibition at 1 µM: read-out: binding inhibitory rate of fluorescent-labeled synthetic ligand to RORγt at test compound 1 μM
T1 sequence (P51449 1-497 isoform P51449-2): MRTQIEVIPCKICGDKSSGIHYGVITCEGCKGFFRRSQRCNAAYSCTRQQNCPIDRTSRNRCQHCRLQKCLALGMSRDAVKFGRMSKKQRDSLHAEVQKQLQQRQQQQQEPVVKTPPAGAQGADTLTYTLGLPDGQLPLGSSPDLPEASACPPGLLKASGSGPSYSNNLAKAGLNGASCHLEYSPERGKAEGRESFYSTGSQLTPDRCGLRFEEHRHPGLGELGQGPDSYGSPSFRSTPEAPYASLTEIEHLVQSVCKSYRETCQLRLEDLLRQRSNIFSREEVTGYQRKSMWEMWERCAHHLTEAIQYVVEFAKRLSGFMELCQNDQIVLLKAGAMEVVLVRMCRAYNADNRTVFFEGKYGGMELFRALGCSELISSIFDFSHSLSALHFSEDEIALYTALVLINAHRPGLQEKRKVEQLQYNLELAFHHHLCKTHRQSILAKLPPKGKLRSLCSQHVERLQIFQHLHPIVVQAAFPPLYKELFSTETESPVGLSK
Method: RORγt Binding Test using Fluorescent-Labeled Synthetic Ligand
The binding activity of the test compound to RORγt was measured by a time resolved fluorescence resonance energy transfer method (TR-FRET) utilizing histidine-tagged RORγt, fluorescent-labeled synthetic ligand and terbium-labeled anti-histidine tag antibody (Invitrogen). First, a test compound diluted with an assay buffer (20 mM Tris-HCl (pH 7.5), 100 mM NaCl, 1 mM DTT, 0.1% BSA) was added to a 384 well plate by 3 μL. Then, RORγt diluted with an assay buffer to 240 nM was added by 3 μL, after which fluorescent-labeled synthetic ligand diluted with the assay buffer to 12 μM was added by 3 μL, and the mixture was stood at room temperature for 20 min. Thereafter, a terbium-labeled anti-histidine tag antibody diluted with the assay buffer to 8 nM was added by 3 μL. The mixture was stood at room temperature for 20 min, and fluorescence intensity (excitation wavelength 320 nm, fluorescence wavelength 520 nm, delay time 100 microseconds) was measured by Envision (PerkinElmer).

RORγt [2] = target: T1, RORγt; assay: Cofactor recruitment test (Alpha Screen, biotinylated SRC-1 peptide); format: biochemical; conditions: for inhibition at 1 µM: read-out: signal value inhibitory rate at test compound 1 μM
Method: Cofactor Recruitment Test
Cofactor recruitment test was performed by Alpha Screen (Histidine Detection Kit, PerkinElmer) method. First, a test compound was diluted with an assay buffer (50 mM Tris-HCl (pH 7.5), 50 mM KCl, 1 mM DTT, 0.1% BSA) and added to a 384 well plate by 5 μL. […] The mixture was stood in a dark place for 1 hr, and the signal value was measured by Envision (PerkinElmer).

RORγt [3] = target: T1, RORγt; assay: Jurkat reporter test (human IL-17 ROR response element luciferase, RORγt vector); format: cell-based; conditions: Jurkat cells; for inhibition at 3 µM: test compound 3 μM, read-out: luminescence level inhibitory rate at test compound 3 μM
Method: The Jurkat cells used for the reporter test were cultured in a culture medium (RPMI (Invitrogen), 10% FCS (AusGeneX), 100 U/mL penicillin, 100 μg/mL streptomycin). On the day of the test, 4×10^7 cells were recovered by a centrifugal operation (1000 rpm, 5 min.) and suspended in PBS (phosphate buffered saline) (Invitrogen). Thereafter, the cells were recovered again by a centrifugal operation, and suspended in 2 mL of R buffer (NEON transfection kit, Invitrogen). […] Gene transfer was performed by Electroporation apparatus (NEON, Invitrogen) under the conditions of pulse voltage 1350 V, interval 10 milliseconds, number of times 3. The cells after gene transfer were suspended in 40 mL of a reaction medium (RPMI, 10% Lipid reduced FCS (HyClone), 10 mM HEPES (pH 7.5), 100 U/mL penicillin, 100 μg/mL streptomycin, 5 μM lovastatin), and plated in a 96 well plate by 90 μL. A test compound diluted with the reaction medium was added by 10 μL, and the cells were cultured overnight in an incubator. Bright-Glo (Promega) was added by 100 μL, and the mixture was stirred at room temperature for 10 min, and the luminescence level was measured by Envision (PerkinElmer).

Row | Structure (SMILES) | inhibition at 1 µM (RORγt [1]) | inhibition at 1 µM (RORγt [2]) | inhibition at 3 µM (RORγt [3]) | inhibition at 1 µM (RORγt [1]; test compound 1 μM) | inhibition at 1 µM (RORγt [2]; test compound 1 μM) | inhibition at 3 µM (RORγt [3]; Jurkat) | further results
1 | COc1ccc2c(c1)CCN(C(=O)[C@H]1C[C@H](CC(=O)O)C1)[C@H]2C(=O)Nc1cc(F)c([Si](C)(C)C)c(F)c1 [Example 27, (trans-3-(((1R)-1-((3,5-difluoro-4-(trimethylsilyl)phenyl)carbamoyl)-6-methoxy-3,4-dihydroisoquinolin-2(1H)-yl)carbonyl)cyclobutyl)acetic acid] | 102% | 91% | 103% |  |  |  | 
2 | COc1ccc2c(n1)CCN(C(=O)[C@H]1C[C@@H](C(=O)OCc3ccccc3)C1)[C@H]2C(=O)Nc1cc(F)c2c(c1)CCC2(C)C [Example 36, benzyl cis-3-(((5R)-5-((7-fluoro-1,1-dimethyl-2,3-dihydro-1H-inden-5-yl)carbamoyl)-2-methoxy-7,8-dihydro-1,6-naphthyridin-6(5H)-yl)carbonyl)cyclobutanecarboxylate] |  |  |  | 102% | 72% | 102% | 
3 | COc1ccc2c(c1)CCN(C(=O)[C@H]1C[C@H](C(=O)O)C1)[C@H]2C(=O)Nc1cc(F)c([Si](C)(C)C)c(F)c1 [Example 12, trans-3-(((1R)-1-((3,5-difluoro-4-(trimethylsilyl)phenyl)carbamoyl)-6-methoxy-3,4-dihydroisoquinolin-2(1H)-yl)carbonyl)cyclobutanecarboxylic acid] | 102% | 91% | 99% |  |  |  | 
4 | COc1ccc2c(n1)CCN(C(=O)[C@H]1C[C@@H](CC(=O)OCc3oc(=O)oc3C)C1)[C@H]2C(=O)Nc1cc(F)c2c(c1)CCC2(C)C [Example 38, (5-methyl-2-oxo-1,3-dioxol-4-yl)methyl (cis-3-(((5R)-5-((7-fluoro-1,1-dimethyl-2,3-dihydro-1H-inden-5-yl)carbamoyl)-2-methoxy-7,8-dihydro-1,6-naphthyridin-6(5H)-yl)carbonyl)cyclobutyl)acetate] |  |  |  | 102% | 61% | 102% | 
5 | COc1ccc2c(n1)CCN(C(=O)[C@H]1C[C@@H](C(=O)OCc3oc(=O)oc3C)C1)[C@H]2C(=O)Nc1cc(F)c2c(c1)CCC2(C)C [Example 44, (5-methyl-2-oxo-1,3-dioxol-4-yl)methyl cis-3-(((5R)-5-((7-fluoro-1,1-dimethyl-2,3-dihydro-1H-inden-5-yl)carbamoyl)-2-methoxy-7,8-dihydro-1,6-naphthyridin-6(5H)-yl)carbonyl)cyclobutanecarboxylate] |  |  |  | 102% | 61% | 102% | 
6 | COc1ccc2c(c1)CCN(C(=O)[C@@H]1C[C@H]1CC(=O)O)[C@H]2C(=O)Nc1cc(F)c([Si](C)(C)C)c(F)c1 [Example 30, ((1S,2R)-2-(((1R)-1-((3,5-difluoro-4-(trimethylsilyl)phenyl)carbamoyl)-6-methoxy-3,4-dihydroisoquinolin-2(1H)-yl)carbonyl)cyclopropyl)acetic acid] | 101% | 90% | 100% |  |  |  | 
7 | CCOc1ccc2c(c1)CCN(C(=O)[C@H]1C[C@@H](CC(=O)O)C1)[C@H]2C(=O)Nc1cc(F)c(C(C)(C)COC)c(F)c1 [Example 17, (cis-3-(((1R)-1-((3,5-difluoro-4-(1-methoxy-2-methylpropan-2-yl)phenyl)carbamoyl)-6-ethoxy-3,4-dihydroisoquinolin-2(1H)-yl)carbonyl)cyclobutyl)acetic acid] |  |  |  | 101% | 85% | 99% | 
8 | COc1ccc2c(c1)CCN(C(=O)C1CC1C(=O)O)[C@H]2C(=O)Nc1cc(F)c([Si](C)(C)C)c(F)c1 (single isomer, unassigned) [Example 3] | 102% | 84% | 97% |  |  |  | 
9 | COCC(C)(C)c1c(F)cc(NC(=O)[C@H]2c3ccc(OC)cc3CCN2C(=O)[C@H]2C[C@@H](CC(=O)O)C2)cc1F [Example 35, (cis-3-(((1R)-1-((3,5-difluoro-4-(1-methoxy-2-methylpropan-2-yl)phenyl)carbamoyl)-6-methoxy-3,4-dihydroisoquinolin-2(1H)-yl)carbonyl)cyclobutyl)acetic acid] |  |  |  | 102% | 83% | 99% | 
10 | COCc1ccc2c(c1)CCN(C(=O)[C@H]1C[C@@H](CC(=O)O)C1)[C@H]2C(=O)Nc1cc(F)c2c(c1)CCC2(C)C [Example 40-A, monopotassium (cis-3-(((1R)-1-((7-fluoro-1,1-dimethyl-2,3-dihydro-1H-inden-5-yl)carbamoyl)-6-(methoxymethyl)-3,4-dihydroisoquinolin-2(1H)-yl)carbonyl)cyclobutyl)acetate acetonitrile solvate] |  |  |  |  |  |  | binding inhibitory rate of fluorescent-labeled synthetic ligand to RORγt at test compound 1 μM (RORγt [1]; test compound 1 μM, 1 µM): 102%; signal value inhibitory rate at test compound 1 μM (RORγt [2]; test compound 1 μM, 1 µM): 87%; luminescence level inhibitory rate at test compound 3 μM (RORγt [3]; 3 µM): 104%
11 | COC(=O)C[C@H]1C[C@@H](C(=O)N2CCc3nc(OC)ccc3[C@@H]2C(=O)Nc2cc(F)c3c(c2)CCC3(C)C)C1 [Example 45, methyl (cis-3-(((5R)-5-((7-fluoro-1,1-dimethyl-2,3-dihydro-1H-inden-5-yl)carbamoyl)-2-methoxy-7,8-dihydro-1,6-naphthyridin-6(5H)-yl)carbonyl)cyclobutyl)acetate] |  |  |  | 101% | 66% | 101% | 
12 | CCOC(=O)C[C@H]1C[C@@H](C(=O)N2CCc3nc(OC)ccc3[C@@H]2C(=O)Nc2cc(F)c3c(c2)CCC3(C)C)C1 [Example 39, ethyl (cis-3-(((5R)-5-((7-fluoro-1,1-dimethyl-2,3-dihydro-1H-inden-5-yl)carbamoyl)-2-methoxy-7,8-dihydro-1,6-naphthyridin-6(5H)-yl)carbonyl)cyclobutyl)acetate] |  |  |  | 101% | 63% | 103% | 
13 | COc1ccc2c(n1)CCN(C(=O)[C@@H]1C[C@H]1CC(=O)O)[C@H]2C(=O)Nc1cc(F)c([Si](C)(C)C)c(F)c1 [Example 14, ((1S,2R)-2-(((5R)-5-((3,5-difluoro-4-(trimethylsilyl)phenyl)carbamoyl)-2-methoxy-7,8-dihydro-1,6-naphthyridin-6(5H)-yl)carbonyl)cyclopropyl)acetic acid] | 101% | 86% | 100% |  |  |  | 
14 | COc1ccc2c(c1)CCN(C(=O)[C@H]1C[C@H](CC(=O)O)C1)[C@H]2C(=O)Nc1ccc([Si](C)(C)C)c(F)c1 [Example 34, (trans-3-(((1R)-1-((3-fluoro-4-(trimethylsilyl)phenyl)carbamoyl)-6-methoxy-3,4-dihydroisoquinolin-2(1H)-yl)carbonyl)cyclobutyl)acetic acid] | 102% | 88% | 100% |  |  |  | 
15 | COc1ccc2c(n1)CCN(C(=O)[C@H]1C[C@@H](C(=O)OC)C1)[C@H]2C(=O)Nc1cc(F)c2c(c1)CCC2(C)C [Example 46, methyl cis-3-(((5R)-5-((7-fluoro-1,1-dimethyl-2,3-dihydro-1H-inden-5-yl)carbamoyl)-2-methoxy-7,8-dihydro-1,6-naphthyridin-6(5H)-yl)carbonyl)cyclobutanecarboxylate] |  |  |  | 102% | 69% | 102% | 
